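Grown in 96-well plates, cells were treated for 48 hours with each compound at five concentrations. Insufficient inhibition: endpoint recorded as highest concentration tested. The concentration for 50% growth inhibition is given as GI50. Definition used: TGI = concentration required for complete inhibition of growth.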
Assays:
Test in all cases: inhibition of tumour cell growth, NCI panel, 48 h
LXFL 529 NSCLC = system: LXFL 529 NSCLC
RXF-631 renal = system: RXF-631 renal
M19-MEL melanoma = system: M19-MEL melanoma
HOP-18 NSCLC = system: HOP-18 NSCLC
DLD-1 colon = system: DLD-1 colon
XF 498 CNS = system: XF 498 CNS
DMS 114 small cell lung = system: DMS 114 small cell lung
MDA-N = system: MDA-N
T-47D breast = system: T-47D breast

c1ccc2c(c1)C1=NCCN1c1ccccc1-2
TGI (LXFL 529 NSCLC): 13 µM | TGI (RXF-631 renal): 9.69 µM | TGI (M19-MEL melanoma): 11 µM | TGI (HOP-18 NSCLC): 9.19 µM | TGI (DLD-1 colon): 9.02 µM

CC(C)c1cc(OCC(O)CO)cc(C(C)C)c1 (stereo unspecified)
TGI (LXFL 529 NSCLC): > 100 µM | TGI (XF 498 CNS): > 100 µM | TGI (M19-MEL melanoma): > 100 µM | TGI (DMS 114 small cell lung): > 100 µM | TGI (HOP-18 NSCLC): > 100 µM | TGI (DLD-1 colon): > 100 µM

Cc1cccc2nc3cccc(C(=O)NCCN(C)C)c3nc12
TGI (M19-MEL melanoma): 3.25 µM | TGI (DMS 114 small cell lung): 3.13 µM | TGI (HOP-18 NSCLC): 84 µM | TGI (DLD-1 colon): 21.8 µM

N#CC1=C(Cl)NC(Cl)=C(C#N)C1c1c(Cl)cccc1Cl
TGI (LXFL 529 NSCLC): > 100 µM | TGI (XF 498 CNS): 35.5 µM | TGI (DMS 114 small cell lung): 28.3 µM | TGI (HOP-18 NSCLC): 91.5 µM | TGI (DLD-1 colon): 46.9 µM

O=S(=O)(C/C(=N\O)c1ccccc1)c1ccccc1
TGI (LXFL 529 NSCLC): > 100 µM | TGI (XF 498 CNS): > 100 µM | TGI (RXF-631 renal): > 100 µM | TGI (M19-MEL melanoma): > 100 µM | TGI (HOP-18 NSCLC): > 100 µM | TGI (DLD-1 colon): > 100 µM

O=C(/C=C1/Nc2ccc([N+](=O)[O-])cc2NC1O)c1cccc([N+](=O)[O-])c1 (stereo unspecified)
TGI (LXFL 529 NSCLC): > 100 µM | TGI (XF 498 CNS): > 100 µM | TGI (M19-MEL melanoma): > 100 µM | TGI (DMS 114 small cell lung): > 100 µM | TGI (DLD-1 colon): > 100 µM

COC(=O)C1=CC2OC1(C)CCC2=O (stereo unspecified)
TGI (LXFL 529 NSCLC): > 100 µM | TGI (XF 498 CNS): > 100 µM | TGI (DLD-1 colon): > 100 µM

O=C1C2Nc3ccccc3SC2C(=O)N1c1ccccc1C(F)(F)F (stereo unspecified)
TGI (LXFL 529 NSCLC): > 100 µM | TGI (XF 498 CNS): 53.2 µM | TGI (M19-MEL melanoma): > 100 µM | TGI (DMS 114 small cell lung): > 100 µM | TGI (HOP-18 NSCLC): > 100 µM | TGI (DLD-1 colon): > 100 µM

C[C@H]1C(=O)CC[C@]2(C)CCC(C(C)(C)O)CC12O (stereo partly specified)
TGI (LXFL 529 NSCLC): > 100 µM | TGI (RXF-631 renal): > 100 µM | TGI (DMS 114 small cell lung): > 100 µM | TGI (HOP-18 NSCLC): > 100 µM | TGI (DLD-1 colon): > 100 µM

CC12Oc3ccc4ccccc4c3CC1Cc1c(ccc3ccccc13)O2 (stereo unspecified)
TGI (LXFL 529 NSCLC): > 100 µM | TGI (M19-MEL melanoma): > 100 µM | TGI (DMS 114 small cell lung): > 100 µM | TGI (HOP-18 NSCLC): 98.7 µM | TGI (DLD-1 colon): > 100 µM

Cc1cccc(C(C)(C)C)c1NC(=O)CC1Sc2ccccc2NC1=O (stereo unspecified)
TGI (LXFL 529 NSCLC): > 100 µM | TGI (RXF-631 renal): > 100 µM | TGI (M19-MEL melanoma): > 100 µM | TGI (DMS 114 small cell lung): 83 µM | TGI (HOP-18 NSCLC): > 100 µM | TGI (DLD-1 colon): > 100 µM

COc1ccc2nc(NC(=O)C(=O)C(C#N)c3ccc(Cl)c(Cl)c3)sc2c1 (stereo unspecified)
TGI (LXFL 529 NSCLC): > 100 µM | TGI (XF 498 CNS): > 100 µM | TGI (RXF-631 renal): > 100 µM | TGI (M19-MEL melanoma): > 100 µM | TGI (DMS 114 small cell lung): > 100 µM | TGI (DLD-1 colon): > 100 µM

Cc1ccccc1-n1c(C)nc(-c2ccccc2)cc1=O
TGI (LXFL 529 NSCLC): > 100 µM | TGI (RXF-631 renal): > 100 µM | TGI (M19-MEL melanoma): > 100 µM | TGI (DMS 114 small cell lung): > 100 µM | TGI (HOP-18 NSCLC): > 100 µM | TGI (DLD-1 colon): > 100 µM

Nn1c(N=Nc2c(O)[nH]c3c(Cl)cc(Cl)cc23)n[nH]c1=S
TGI (LXFL 529 NSCLC): > 100 µM | TGI (M19-MEL melanoma): > 100 µM | TGI (DMS 114 small cell lung): > 100 µM | TGI (HOP-18 NSCLC): > 100 µM | TGI (DLD-1 colon): > 100 µM

CC(Br)C(=O)Nc1ccc(C(=O)O)c(O)c1 (stereo unspecified)
TGI (MDA-N): > 100 µM | TGI (T-47D breast): > 100 µM

O=C(NS(=O)(=O)c1ccccc1)C(Cc1ccccc1)C(Cc1ccccc1)C(=O)NS(=O)(=O)c1ccccc1 (stereo unspecified)
TGI (LXFL 529 NSCLC): > 100 µM | TGI (M19-MEL melanoma): > 100 µM | TGI (DMS 114 small cell lung): > 100 µM | TGI (HOP-18 NSCLC): > 100 µM | TGI (DLD-1 colon): > 100 µM

Nc1n[nH]c(CCc2nc(N)n[nH]2)n1
TGI (LXFL 529 NSCLC): > 100 µM | TGI (RXF-631 renal): > 100 µM | TGI (M19-MEL melanoma): > 100 µM | TGI (DMS 114 small cell lung): > 100 µM | TGI (DLD-1 colon): > 100 µM

CCC(Oc1ccc(OC)c2ccccc(=O)c12)C(=O)O (stereo unspecified)
TGI (LXFL 529 NSCLC): > 100 µM | TGI (RXF-631 renal): > 100 µM | TGI (M19-MEL melanoma): > 100 µM | TGI (DMS 114 small cell lung): > 100 µM

O=C1c2nc3n(c2C(=O)c2c1nc1n2CCC1)CCC3
TGI (LXFL 529 NSCLC): 21.5 µM | TGI (XF 498 CNS): 19.6 µM | TGI (MDA-N): 3.47 µM | TGI (M19-MEL melanoma): 0.387 µM | TGI (DMS 114 small cell lung): 5.29 µM | TGI (HOP-18 NSCLC): 27.2 µM | TGI (DLD-1 colon): 18.2 µM

CSc1cccc(NC(=O)OC2CCCCCCCCCCC2)c1
TGI (MDA-N): 60.8 µM | TGI (T-47D breast): > 100 µM

COC(=O)C1=C(c2ccc3c(c2)OCO3)OC(c2cc(OC)c(OC)c(OC)c2)C1 (stereo unspecified)
TGI (LXFL 529 NSCLC): > 100 µM | TGI (XF 498 CNS): > 100 µM | TGI (M19-MEL melanoma): > 100 µM | TGI (DMS 114 small cell lung): 9.33 µM | TGI (HOP-18 NSCLC): > 100 µM | TGI (DLD-1 colon): > 100 µM

O=C(O)c1ccccc1NC(=O)C1CCCCC1
TGI (LXFL 529 NSCLC): > 100 µM | TGI (XF 498 CNS): > 100 µM | TGI (RXF-631 renal): > 100 µM | TGI (M19-MEL melanoma): > 100 µM | TGI (DMS 114 small cell lung): > 100 µM | TGI (DLD-1 colon): > 100 µM

O=C(CC1C(=O)Nc2ccccc2S1=O)Nc1ccc(Cl)cc1 (stereo unspecified)
TGI (LXFL 529 NSCLC): > 100 µM | TGI (DLD-1 colon): > 100 µM

CC1=C(C(=O)Nc2ccc([N+](=O)[O-])cc2)C(c2ccccc2F)C(C(=O)Nc2ccc([N+](=O)[O-])cc2)=C(C)N1
TGI (LXFL 529 NSCLC): 59.6 µM | TGI (XF 498 CNS): 6.94 µM | TGI (RXF-631 renal): > 100 µM | TGI (M19-MEL melanoma): 55.5 µM | TGI (DMS 114 small cell lung): 87.8 µM | TGI (DLD-1 colon): > 100 µM

CC1(C)OC(=O)C=C([O-])O1.CC1(C)OC(=O)C=C([O-])O1.CC[O-].CC[O-].[Ti+4]
GI50 (LXFL 529 NSCLC): > 100 µM | TGI (LXFL 529 NSCLC): > 100 µM | GI50 (M19-MEL melanoma): > 100 µM | TGI (M19-MEL melanoma): > 100 µM | GI50 (DMS 114 small cell lung): > 100 µM | TGI (DMS 114 small cell lung): > 100 µM | GI50 (HOP-18 NSCLC): > 100 µM | TGI (HOP-18 NSCLC): > 100 µM | GI50 (DLD-1 colon): > 100 µM | TGI (DLD-1 colon): > 100 µM

CN(C)C(=S)/N=c1\ss/c(=N\S(=O)(=O)c2ccccc2)n1N(C)C
TGI (LXFL 529 NSCLC): > 100 µM | TGI (RXF-631 renal): > 100 µM | TGI (M19-MEL melanoma): > 100 µM | TGI (DMS 114 small cell lung): 85.9 µM | TGI (HOP-18 NSCLC): > 100 µM | TGI (DLD-1 colon): > 100 µM

CCc1nc(N)nc(N)c1-c1ccc(Cl)c(N=CN(C)C)c1
TGI (MDA-N): > 100 µM | TGI (T-47D breast): > 100 µM

CCCCCCC(/C=N/O)C(C)(O)CCC (stereo unspecified)
TGI (LXFL 529 NSCLC): > 100 µM | TGI (XF 498 CNS): > 100 µM | TGI (M19-MEL melanoma): > 100 µM | TGI (DMS 114 small cell lung): > 100 µM | TGI (DLD-1 colon): > 100 µM

— PubChem BioAssay (NCI)
